Results: ChEMBL document CHEMBL1201862, “PubChem BioAssay data set” (2004)
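Growth conditions: 96-well plates. Treatment: test compound, 48 hours, 5 concentrations. Analysis: linear interpolation between bracketing concentrations; unreached endpoints set to highest concentration. Here, GI50 denotes the concentration required for 50% inhibition of growth.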 Calls of active or inactive are those of the source. Cut-off read from the data, not from the text of the source: active = GI50 up to about 1.1 µM and inactive = higher.

Assays:
Assay in all cases: NCI anticancer screen, dose series, 48 h
A549 = system: A549
UO-31 = system: UO-31
CAKI-1 = system: CAKI-1
786-0 = system: 786-0
CCRF-CEM = system: CCRF-CEM
NCI-H460 = system: NCI-H460
KM12 = system: KM12
OVCAR-8 = system: OVCAR-8
TK-10 = system: TK-10
UACC-62 = system: UACC-62
OVCAR-4 = system: OVCAR-4
DLD-1 = system: DLD-1
EKVX = system: EKVX
M19-MEL = system: M19-MEL
HOP-18 = system: HOP-18
IGROV-1 = system: IGROV-1
HT-29 = system: HT-29
LOX IMVI = system: LOX IMVI
UACC-257 = system: UACC-257
KM-20L2 = system: KM-20L2
LXFL 529 = system: LXFL 529
SF-295 = system: SF-295
ACHN = system: ACHN
SF-539 = system: SF-539
OVCAR-3 = system: OVCAR-3
DMS-273 = system: DMS-273
HCT-116 = system: HCT-116
NCI-H226 = system: NCI-H226
RXF 393 = system: RXF 393
DMS-114 = system: DMS-114
RXF 631 = system: RXF 631
HCT-15 = system: HCT-15
SK-OV-3 = system: SK-OV-3
HOP-62 = system: HOP-62
Malme-3M = system: Malme-3M
NCI-H23 = system: NCI-H23
SNB-75 = system: SNB-75
MOLT-4 = system: MOLT-4
XF498 = system: XF498
SR = system: SR
SW-620 = system: SW-620
SK-MEL-2 = system: SK-MEL-2
COLO 205 = system: COLO 205
HCC 2998 = system: HCC 2998
SNB-19 = system: SNB-19
HL-60 = system: HL-60
SF-268 = system: SF-268
NCI-H522 = system: NCI-H522
SK-MEL-5 = system: SK-MEL-5
M14 = system: M14
SK-MEL-28 = system: SK-MEL-28
HOP-92 = system: HOP-92
SN12C = system: SN12C
SNB-78 = system: SNB-78
OVCAR-5 = system: OVCAR-5
U-251 = system: U-251
K562 = system: K562

Question: With COC(=O)C(Cc1nc2ccccc2nc1O)C(=O)C(=O)Nc1ccc(F)cc1 (stereo not drawn) as the compound, how does the GI50 (A549) read?
Answer: > 100 µM (inactive)

Question: And the GI50 (UO-31)?
Answer: > 100 µM (inactive)

Question: What about the GI50 (CAKI-1) of the same compound?
Answer: > 100 µM (inactive)

Question: What about the GI50 (786-0) of the same compound?
Answer: 25.4 µM (inactive)

Question: What about the GI50 (CCRF-CEM) of the same compound?
Answer: 27.3 µM (inactive)

Question: What about the GI50 (NCI-H460) of the same compound?
Answer: > 100 µM (inactive)

Question: And the GI50 (KM12)?
Answer: 41 µM (inactive)

Question: And the GI50 (OVCAR-8)?
Answer: 20 µM (inactive)

Question: What about the GI50 (TK-10) of the same compound?
Answer: > 100 µM (inactive)

Question: And the GI50 (UACC-62)?
Answer: 24.2 µM (inactive)

Question: What about the GI50 (OVCAR-4) of the same compound?
Answer: 77.3 µM (inactive)

Question: What about the GI50 (DLD-1) of the same compound?
Answer: 32.9 µM (inactive)

Question: What about the GI50 (EKVX) of the same compound?
Answer: > 100 µM (inactive)

Question: What about the GI50 (M19-MEL) of the same compound?
Answer: 46.7 µM (inactive)

Question: What about the GI50 (HOP-18) of the same compound?
Answer: > 100 µM (inactive)

Question: And the GI50 (IGROV-1)?
Answer: 53.5 µM (inactive)

Question: And the GI50 (HT-29)?
Answer: 42.6 µM (inactive)

Question: And the GI50 (LOX IMVI)?
Answer: 41.3 µM (inactive)

Question: What about the GI50 (UACC-257) of the same compound?
Answer: > 100 µM (inactive)

Question: And the GI50 (KM-20L2)?
Answer: > 100 µM (inactive)

Question: And the GI50 (LXFL 529)?
Answer: 15.7 µM (inactive)

Question: What about the GI50 (SF-295) of the same compound?
Answer: > 100 µM (inactive)

Question: What about the GI50 (ACHN) of the same compound?
Answer: > 100 µM (inactive)

Question: What about the GI50 (SF-539) of the same compound?
Answer: 37 µM (inactive)

Question: And the GI50 (OVCAR-3)?
Answer: 40.6 µM (inactive)

Question: What about the GI50 (DMS-273) of the same compound?
Answer: 48.1 µM (inactive)

Question: And the GI50 (HCT-116)?
Answer: 41.2 µM (inactive)

Question: And the GI50 (NCI-H226)?
Answer: > 100 µM (inactive)

Question: And the GI50 (RXF 393)?
Answer: 23.4 µM (inactive)

Question: And the GI50 (DMS-114)?
Answer: 22.9 µM (inactive)

Question: And the GI50 (RXF 631)?
Answer: 32.7 µM (inactive)

Question: What about the GI50 (HCT-15) of the same compound?
Answer: > 100 µM

Question: What about the GI50 (SK-OV-3) of the same compound?
Answer: > 100 µM (inactive)

Question: And the GI50 (HOP-62)?
Answer: > 100 µM (inactive)

Question: What about the GI50 (Malme-3M) of the same compound?
Answer: 28.8 µM (inactive)

Question: What about the GI50 (NCI-H23) of the same compound?
Answer: 34 µM (inactive)

Question: And the GI50 (SNB-75)?
Answer: 28.8 µM (inactive)

Question: And the GI50 (MOLT-4)?
Answer: 58.6 µM (inactive)

Question: And the GI50 (XF498)?
Answer: 54 µM (inactive)

Question: What about the GI50 (SR) of the same compound?
Answer: 33 µM (inactive)

Question: And the GI50 (SW-620)?
Answer: 21.9 µM (inactive)

Question: What about the GI50 (SK-MEL-2) of the same compound?
Answer: 34.4 µM (inactive)

Question: And the GI50 (COLO 205)?
Answer: 37.9 µM (inactive)

Question: What about the GI50 (HCC 2998) of the same compound?
Answer: > 100 µM (inactive)

Question: And the GI50 (SNB-19)?
Answer: > 100 µM (inactive)

Question: What about the GI50 (HL-60) of the same compound?
Answer: 45.5 µM (inactive)

Question: And the GI50 (SF-268)?
Answer: 13.1 µM (inactive)

Question: What about the GI50 (NCI-H522) of the same compound?
Answer: 10.3 µM (inactive)

Question: What about the GI50 (SK-MEL-5) of the same compound?
Answer: > 100 µM (inactive)

Question: And the GI50 (M14)?
Answer: 74.8 µM (inactive)

Question: What about the GI50 (SK-MEL-28) of the same compound?
Answer: 27.4 µM (inactive)

Question: And the GI50 (HOP-92)?
Answer: 20.8 µM (inactive)

Question: And the GI50 (SN12C)?
Answer: 40.9 µM (inactive)

Question: For COc1cc(C2C3=C(CCC3=O)Oc3cc4c(cc32)OCO4)cc(OC)c1OC (stereo not drawn), which GI50 (A549) is on record?
Answer: 0.448 µM (active)

Question: What about the GI50 (UO-31) of the same compound?
Answer: 0.321 µM (active)

Question: What about the GI50 (CAKI-1) of the same compound?
Answer: 0.222 µM (active)

Question: What about the GI50 (CCRF-CEM) of the same compound?
Answer: 0.318 µM (active)

Question: What about the GI50 (NCI-H460) of the same compound?
Answer: 0.358 µM (active)

Question: What about the GI50 (OVCAR-8) of the same compound?
Answer: 0.596 µM (active)

Question: And the GI50 (TK-10)?
Answer: 0.417 µM (active)

Question: What about the GI50 (UACC-62) of the same compound?
Answer: 0.141 µM (active)

Question: What about the GI50 (OVCAR-4) of the same compound?
Answer: 10 µM (inactive)

Question: What about the GI50 (SNB-78) of the same compound?
Answer: 0.706 µM (active)

Question: And the GI50 (EKVX)?
Answer: 0.422 µM (active)

Question: And the GI50 (M19-MEL)?
Answer: 0.412 µM (active)

Question: And the GI50 (HOP-18)?
Answer: > 100 µM (inactive)

Question: And the GI50 (IGROV-1)?
Answer: 0.67 µM (active)

Question: And the GI50 (HT-29)?
Answer: 0.279 µM (active)

Question: And the GI50 (LOX IMVI)?
Answer: 0.491 µM (active)

Question: And the GI50 (UACC-257)?
Answer: 0.406 µM (active)

Question: And the GI50 (KM-20L2)?
Answer: 0.238 µM (active)

Question: What about the GI50 (SF-295) of the same compound?
Answer: 0.109 µM (active)

Question: And the GI50 (ACHN)?
Answer: 0.337 µM (active)

Question: What about the GI50 (OVCAR-3) of the same compound?
Answer: 0.136 µM (active)

Question: And the GI50 (DMS-273)?
Answer: 0.158 µM (active)

Question: What about the GI50 (HCT-116) of the same compound?
Answer: 0.391 µM (active)

Question: What about the GI50 (OVCAR-5) of the same compound?
Answer: 0.458 µM (active)

Question: What about the GI50 (RXF 393) of the same compound?
Answer: 0.54 µM (active)

Question: And the GI50 (DMS-114)?
Answer: 0.218 µM (active)

Question: What about the GI50 (RXF 631) of the same compound?
Answer: 0.367 µM (active)

Question: And the GI50 (HCT-15)?
Answer: 0.256 µM

Question: And the GI50 (SK-OV-3)?
Answer: 0.28 µM (active)

Question: And the GI50 (HOP-62)?
Answer: 0.0324 µM (active)

Question: What about the GI50 (Malme-3M) of the same compound?
Answer: 1.44 µM (inactive)

Question: And the GI50 (NCI-H23)?
Answer: 0.39 µM (active)

Question: What about the GI50 (SNB-75) of the same compound?
Answer: 0.038 µM (active)

Question: And the GI50 (U-251)?
Answer: 0.366 µM (active)

Question: And the GI50 (XF498)?
Answer: 0.122 µM (active)

Question: What about the GI50 (SW-620) of the same compound?
Answer: 0.285 µM (active)

Question: And the GI50 (K562)?
Answer: 0.138 µM (active)

Question: What about the GI50 (COLO 205) of the same compound?
Answer: 0.336 µM (active)

Question: What about the GI50 (SNB-19) of the same compound?
Answer: 0.692 µM (active)

Question: And the GI50 (HL-60)?
Answer: 0.204 µM (active)

Question: What about the GI50 (SK-MEL-5) of the same compound?
Answer: 0.237 µM (active)

Question: And the GI50 (M14)?
Answer: 0.349 µM (active)

Question: And the GI50 (SK-MEL-28)?
Answer: 0.429 µM (active)

Question: And the GI50 (HOP-92)?
Answer: 0.036 µM (active)

Question: And the GI50 (SN12C)?
Answer: 0.593 µM (active)
